Experimental data reported in patent publication US9809623B2, “α4β7 peptide monomer and dimer antagonists” (Protagonist Therapeutics, Inc., priority 2014, dated 2017).
Numbered stars: 1 amine (or outer) side, 2 acyl side, 3 side chain; on linkers, the order of the positions; unused ones are H or OH. Bridge positions count the residues as written; N and C are the ends. Square brackets hold non-standard residues; d marks the D form. Peptide text beside a SMILES is read from it. I, II: the chains in the order shown. ξ: configuration not given here. Phe(4-tBu) = CC(C)(C)c1ccc(C[C@H](N)C(=O)O)cc1; Diglycolyl = O=C(COCC(=O)[*:2])[*:1]; NMeR = CN[C@@H](CCCNC(=N)N)C(=O)O; β3hE = N[C@@H](CCC(=O)O)CC(=O)O; Thr(3ξ) = CC(O)[C@H](N)C(=O)O; Pen = CC(C)(S)[C@H](N)C(=O)O

Assays:
[1] = FIG. 5
Excerpt: Table printed on a drawing sheet, FIG. 5
Footnotes: SIF- simulated intestinal fluid (porcine) / RIW- rat intestinal wash / HIF- human intestinal fluid / CW- colonic wash (rat) / IMH- intestinal mucosal homogenate (rat) / CMG- colonic mucosal homogenate (rat) / SGF- simulated gastric fluid (porcine) / Hu S9- human intestinal S9 fraction / RL S9- rat liver S9
First reader's note: The first column is printed empty in all rows, so no substance name appears on the sheet; the column head reads CMH while the legend prints CMG.

[2] = molecular target: αLβ2 (Homo sapiens, UniProt P05107+P20701); test: PBMC memory T cell adhesion to ICAM-1; format: cell-based; design: endogenous in cells; conditions: memory T cells isolated from human PBMC donors; read-out: IC50 (nM), memory T cells, Ligand ICAM-1
Sequence of αLβ2 (P20701 26-1170): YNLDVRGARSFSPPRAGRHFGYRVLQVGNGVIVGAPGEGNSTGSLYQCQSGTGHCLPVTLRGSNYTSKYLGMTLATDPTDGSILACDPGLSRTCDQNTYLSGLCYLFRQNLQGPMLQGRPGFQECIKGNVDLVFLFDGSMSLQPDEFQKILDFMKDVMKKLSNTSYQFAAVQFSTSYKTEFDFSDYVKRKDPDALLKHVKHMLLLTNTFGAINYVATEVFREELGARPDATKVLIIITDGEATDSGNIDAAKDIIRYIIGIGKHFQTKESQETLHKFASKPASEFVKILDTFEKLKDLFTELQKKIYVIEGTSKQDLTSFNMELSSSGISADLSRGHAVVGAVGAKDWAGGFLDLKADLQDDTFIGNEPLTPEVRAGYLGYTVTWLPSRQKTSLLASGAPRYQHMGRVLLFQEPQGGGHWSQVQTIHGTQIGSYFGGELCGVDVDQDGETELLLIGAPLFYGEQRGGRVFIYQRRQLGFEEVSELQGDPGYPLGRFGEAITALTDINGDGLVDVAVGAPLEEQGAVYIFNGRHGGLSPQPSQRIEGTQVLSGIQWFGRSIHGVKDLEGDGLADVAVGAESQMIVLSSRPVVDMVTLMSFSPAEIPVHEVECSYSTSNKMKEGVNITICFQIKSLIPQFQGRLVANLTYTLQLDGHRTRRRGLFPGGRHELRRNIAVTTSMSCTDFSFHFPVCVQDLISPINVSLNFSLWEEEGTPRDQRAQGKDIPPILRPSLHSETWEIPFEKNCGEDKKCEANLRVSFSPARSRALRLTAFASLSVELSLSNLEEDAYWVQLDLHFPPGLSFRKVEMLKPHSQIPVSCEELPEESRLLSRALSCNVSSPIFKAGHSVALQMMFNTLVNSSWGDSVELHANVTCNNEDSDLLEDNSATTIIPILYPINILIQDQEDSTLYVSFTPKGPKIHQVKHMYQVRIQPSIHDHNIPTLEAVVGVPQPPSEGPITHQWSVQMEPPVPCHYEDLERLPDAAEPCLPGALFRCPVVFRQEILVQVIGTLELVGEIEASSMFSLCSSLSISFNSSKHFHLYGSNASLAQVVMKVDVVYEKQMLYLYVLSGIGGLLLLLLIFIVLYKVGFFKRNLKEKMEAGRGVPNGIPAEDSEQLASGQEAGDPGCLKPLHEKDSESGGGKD
Sequence of αLβ2 (P05107 23-769): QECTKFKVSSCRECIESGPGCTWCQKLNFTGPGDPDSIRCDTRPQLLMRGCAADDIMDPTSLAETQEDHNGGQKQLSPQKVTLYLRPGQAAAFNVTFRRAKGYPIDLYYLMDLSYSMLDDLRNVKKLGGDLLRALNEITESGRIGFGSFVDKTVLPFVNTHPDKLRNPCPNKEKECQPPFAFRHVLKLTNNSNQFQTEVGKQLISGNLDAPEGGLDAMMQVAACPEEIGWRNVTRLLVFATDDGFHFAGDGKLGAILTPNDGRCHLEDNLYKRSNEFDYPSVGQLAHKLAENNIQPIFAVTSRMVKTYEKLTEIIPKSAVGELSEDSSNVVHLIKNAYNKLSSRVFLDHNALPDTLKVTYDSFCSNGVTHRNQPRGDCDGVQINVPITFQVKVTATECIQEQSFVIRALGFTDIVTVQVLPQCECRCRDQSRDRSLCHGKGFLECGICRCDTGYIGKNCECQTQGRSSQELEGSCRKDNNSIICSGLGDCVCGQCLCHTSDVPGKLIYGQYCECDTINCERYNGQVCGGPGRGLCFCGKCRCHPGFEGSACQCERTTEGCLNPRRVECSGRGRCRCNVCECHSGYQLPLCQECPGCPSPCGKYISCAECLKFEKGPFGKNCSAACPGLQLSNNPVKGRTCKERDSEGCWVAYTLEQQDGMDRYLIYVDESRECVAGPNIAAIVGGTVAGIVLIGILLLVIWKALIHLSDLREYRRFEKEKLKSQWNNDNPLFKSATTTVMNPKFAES

[3] = PK studies in normal or DSS treated mice and rats, oral dosing; format: in vivo
[4] = tested on: αEβ7 integrin; test: FACS binding in cynomolgus monkey blood (α4β7 / αEβ7 expressing cells); format: cell-based; conditions: cynomolgus monkey blood
Experimental: Blood from cynomolgus monkeys was also analyzed by FACS.
Binding to αEβ7 integrin in cyno blood was also tested. Cyno blood was incubated with 1 nM Peptide X-Alexa 647, and cells expressing α4β7 or αEβ7 were analyzed by FACS. […] Binding to α4β7 was specific, because it could be blocked in the presence of a large excess (1 uM) of unlabeled Peptide X. Therefore under these conditions, it was concluded that Peptide X binds α4β7, not αEβ7.

[5] = tested on: α4β7 receptor; test: 7 day oral study, FACS receptor occupancy, α4β7 expression and circulating T cells; format: in vivo, cynomolgus monkey
Experimental: In certain embodiments for FACS analysis, heparinized whole blood from animals *e.g., cyanos) is stained with each of two panels of antibodies to evaluate (1) the extent of α4β7 receptor occupancy in samples treated with a peptide dimer compound or peptide monomer compound described herein; and (2) the abundance of circulating α4β7+, αEβ7+, and α4β7+αEβ7+ lymphocyte subsets. Receptor occupancy and integrin expression are assessed within memory CD4 T cells, naïve CD4 T cells, and B cells. To evaluate receptor occupancy, whole blood samples are first treated with 1 mM MnCl2 to allow peptide binding, and then pre-incubated+/−1 uM unlabeled peptide to fully occupy (i.e., block) the α4β7 receptor. Blocked and unblocked samples were stained with 1 nM Alexa 647-labeled peptide, followed by staining with antibodies against α4β7, CD45, CD4, CD45RA, and CD19. Samples are processed to lyse erythrocytes and fix leukocytes, followed by staining with a second-step reagent (streptavidin-BV421) and wash steps. To assess integrin expression and cell subset abundance, whole blood samples are stained with antibodies against α4, β7, and αE, in addition to antibodies against CD45, CD4, CD45RA, and CD19. Samples are processed to lyse erythrocytes and fix leukocytes, followed by staining with a second-step reagent (streptavidin-BV421) and wash steps. The stained samples are analyzed by flow cytometry, collecting a constant sample volume to allow calculation of absolute cell counts.
To further evaluate the in vivo properties of Peptide X in a higher species, cynomolgus monkeys were dosed with Peptide X for 7 days. Dosing was oral (nasogastric intubation) once daily. Whole blood (about 3.5 mL) was collected on Day 0 (prior to dosing) and Day 6 (1 hour post the last dose) for PK and PD analysis. On Day 6, blood was also collected from a non-dosed animal. For PD, FACS analysis was used to measure receptor occupancy, down-regulation of α4β7 expression and circulating levels of T cells expressing the integrin α4β7.
For FACS analysis, heparinized whole blood from the cynos was stained with each of two panels of antibodies to evaluate (1) the extent of α4β7 receptor occupancy in Peptide X-treated samples and (2) the abundance of circulating α4β7+, αEβ7+, and α4β7+αEβ7+ lymphocyte subsets. Receptor occupancy and integrin expression were assessed within memory CD4 T cells, naïve CD4 T cells, and B cells. To evaluate receptor occupancy, whole blood samples were first treated with 1 mM MnCl2 to allow Peptide X binding, and then pre-incubated+/−1 uM unlabeled Peptide X to fully occupy (i.e., block) the α4β7 receptor. […] All stained samples were analyzed by flow cytometry, collecting a constant sample volume to allow calculation of absolute cell counts.

In the case of `CC(=O)N[C@@H]1C(=O)N(C)[C@@H](CCCNC(=N)N)C(=O)N[C@@H](CO)C(=O)N[C@@H](CC(=O)O)C(=O)N[C@@H](C(C)O)C(=O)N[C@@H](CC(C)C)C(=O)N[C@H](C(=O)N[C@@H](Cc2ccc(C(C)(C)C)cc2)C(=O)N[C@@H](CCC(=O)O)CC(=O)N[C@H](CCCCNC(=O)COCC(=O)NCCCC[C@@H](NC(=O)C[C@H](CCC(=O)O)NC(=O)[C@H](Cc2ccc(C(C)(C)C)cc2)NC(=O)[C@H]2NC(=O)[C@H](CC(C)C)NC(=O)[C@H](C(C)O)NC(=O)[C@H](CC(=O)O)NC(=O)[C@H](CO)NC(=O)[C@H](CCCNC(=N)N)N(C)C(=O)[C@@H](NC(C)=O)C(C)(C)SSC2(C)C)C(N)=O)C(N)=O)C(C)(C)SSC1(C)C` (stereo partly drawn) [Peptide X, [Ac-Pen-(N-Me-Arg)-Ser-Asp-Thr-Leu-Pen-(Phe(4-tBu))-(β-homoGlu)-(D-Lys)]2-DIG] (I: Ac-[Pen][NMeR]SD[Thr(3ξ)]L[Pen][Phe(4-tBu)][β3hE][dK]-NH2 / II: Ac-[Pen][NMeR]SD[Thr(3ξ)]L[Pen][Phe(4-tBu)][β3hE][dK]-NH2; disulfide I:1-I:7, II:1-II:7; linker I:10-II:10 via Diglycolyl), the “Intestinal half-life | CMH” value [1] is reported as greater than 6 h, the “Intestinal half-life | CW” value [1] is reported as greater than 6 h and the “Intestinal half-life | HIF” value [1] is reported as greater than 24 h. The “Intestinal half-life | IMH” value [1] was greater than 6 h, the “Intestinal half-life | SIF” value [1] was 11 h and the “Metabolism | Hu S9” value [1] was greater than 6 h. For the same molecule, the “Metabolism | RL S9” value [1] was greater than 6 h, the IC50 [2] was greater than 100000 nM and the “levels in the blood and urine after oral dosing” value [3] was “no significant measurable levels in the blood and urine”. For the same molecule, the “binding site on α4β7 relative to vedolizumab” value [4] was “binds to a site on α4β7 that is distinct from the binding site for vedolizumab”, the “α4β7 expression on CD4 memory T cells” value ([5]; all doses, Day 6 vs Day 0) was “decreased at all doses” and the EC50 ([5]; by extrapolation, estimated, read-out: plasma concentration sufficient to occupy 50% of the α4β7 receptors in the blood) was roughly 0.35 nM. The “percentage of α4β7+ memory T cells normalized to total CD4 cells” value ([5]; cyno blood) was “increase” and the “percent receptor occupancy in blood” value ([5]; highest dose (75 mg/kg/day), oral once daily 7 days, CD4 memory α4β7+ T cells) was “exceeded 90%”.
